Results taken from patent US20250248998A1, “LRRK2 Inhibitors” (Brenig Therapeutics, Inc., priority 2022, published 2025).

Columns and labels:
LRRK2 WT [1] = target: T1, LRRK2 WT (Homo sapiens, UniProt Q5S007); test: Enzymatic activity inhibition against LRRK2 WT (ADP-Glo kinase assay, LRRKtide substrate); type: biochemical; design: purchased SignalChem Biotech, Inc. L10-11G-10; conditions: recombinant LRRK2 WT 36 nM, ATP, 1 h at rt, average Ki
Protocol: Example B. Primary Assays Used to Determine Potency of the LRRK2 Inhibition
Assay for Determining Enzymatic Activity Inhibition Against LRRK2 WT.
Compound activity was determined using recombinant LRRK2 WT protein (SignalChem Biotech, Inc., Cat #L10-11G-10) and LRRKtide substrate (SignalChem Biotech, Inc., Cat #L10-58) in an in vitro enzymatic reaction. The enzymatic reaction was carried out in assay buffer (40 mM TRIS-HCl pH 7.4, 20 mM MgCl2, 0.05 mM DTT, 0.1 mg/mL BSA). The compounds were dispensed into a 384 well Diamond Well Plate (Axigen, Cat #P-384-120SQ-C-S) using the Biomek FX liquid handling system at 80× solutions of compounds in DMSO. The 2× Protein-Substrate mix (final concentration 36 nM of LRRK2 WT and 0.8 μg/μL of LRRKtide) was prepared in the 1× Assay buffer and 4 μL of mixture per well was added into the 384-well white Reaction plate with NBS (Corning, Cat #CLS4513). The 4 μL of LRRKtide substrate w/o LRRK2 WT in the 1× buffer was used for a negative control. Plates were centrifuged for 1 min at 200 g. Next the compounds were added to Reaction plate using Biomek station via following steps: 1 μL of 80× compounds (in DMSO) were mixed thoroughly with 39 μL of 2×10 μM ATP in Assay Buffer, then 4 μL of this mixture was added to Reaction plate with 4 μL of Protein-Substrate mix. Plates were centrifuged for 1 min at 200 g and incubated for 1 hour at rt. Then, 4 μL per well of ADP-Glo reagent (Promega, ADP-Glo™ Kinase Assay, Cat #V9102) was added. Plates were incubated for 30 minutes at rt. Then, 8 μL per well of Kinase detection reagent (Promega, ADP-Glo™ Kinase Assay, Cat #V9102) was added and the luminescence signal was measured with a microplate reader. The % inhibition was then used to calculate the Ki values. The average Ki values are shown in Table B, wherein “A” corresponds to Ki<10.0 nM, “B” corresponds to 10.0 nM K Ki<20.0 nM, “C” 20.0 nM K Ki<50.0 nM, “D” corresponds to 50.0 nM K Ki<100.0 nM and “E” corresponds to Ki>100.0 nM.
Target sequence in this assay (Q5S007 970-2527 limits assumed): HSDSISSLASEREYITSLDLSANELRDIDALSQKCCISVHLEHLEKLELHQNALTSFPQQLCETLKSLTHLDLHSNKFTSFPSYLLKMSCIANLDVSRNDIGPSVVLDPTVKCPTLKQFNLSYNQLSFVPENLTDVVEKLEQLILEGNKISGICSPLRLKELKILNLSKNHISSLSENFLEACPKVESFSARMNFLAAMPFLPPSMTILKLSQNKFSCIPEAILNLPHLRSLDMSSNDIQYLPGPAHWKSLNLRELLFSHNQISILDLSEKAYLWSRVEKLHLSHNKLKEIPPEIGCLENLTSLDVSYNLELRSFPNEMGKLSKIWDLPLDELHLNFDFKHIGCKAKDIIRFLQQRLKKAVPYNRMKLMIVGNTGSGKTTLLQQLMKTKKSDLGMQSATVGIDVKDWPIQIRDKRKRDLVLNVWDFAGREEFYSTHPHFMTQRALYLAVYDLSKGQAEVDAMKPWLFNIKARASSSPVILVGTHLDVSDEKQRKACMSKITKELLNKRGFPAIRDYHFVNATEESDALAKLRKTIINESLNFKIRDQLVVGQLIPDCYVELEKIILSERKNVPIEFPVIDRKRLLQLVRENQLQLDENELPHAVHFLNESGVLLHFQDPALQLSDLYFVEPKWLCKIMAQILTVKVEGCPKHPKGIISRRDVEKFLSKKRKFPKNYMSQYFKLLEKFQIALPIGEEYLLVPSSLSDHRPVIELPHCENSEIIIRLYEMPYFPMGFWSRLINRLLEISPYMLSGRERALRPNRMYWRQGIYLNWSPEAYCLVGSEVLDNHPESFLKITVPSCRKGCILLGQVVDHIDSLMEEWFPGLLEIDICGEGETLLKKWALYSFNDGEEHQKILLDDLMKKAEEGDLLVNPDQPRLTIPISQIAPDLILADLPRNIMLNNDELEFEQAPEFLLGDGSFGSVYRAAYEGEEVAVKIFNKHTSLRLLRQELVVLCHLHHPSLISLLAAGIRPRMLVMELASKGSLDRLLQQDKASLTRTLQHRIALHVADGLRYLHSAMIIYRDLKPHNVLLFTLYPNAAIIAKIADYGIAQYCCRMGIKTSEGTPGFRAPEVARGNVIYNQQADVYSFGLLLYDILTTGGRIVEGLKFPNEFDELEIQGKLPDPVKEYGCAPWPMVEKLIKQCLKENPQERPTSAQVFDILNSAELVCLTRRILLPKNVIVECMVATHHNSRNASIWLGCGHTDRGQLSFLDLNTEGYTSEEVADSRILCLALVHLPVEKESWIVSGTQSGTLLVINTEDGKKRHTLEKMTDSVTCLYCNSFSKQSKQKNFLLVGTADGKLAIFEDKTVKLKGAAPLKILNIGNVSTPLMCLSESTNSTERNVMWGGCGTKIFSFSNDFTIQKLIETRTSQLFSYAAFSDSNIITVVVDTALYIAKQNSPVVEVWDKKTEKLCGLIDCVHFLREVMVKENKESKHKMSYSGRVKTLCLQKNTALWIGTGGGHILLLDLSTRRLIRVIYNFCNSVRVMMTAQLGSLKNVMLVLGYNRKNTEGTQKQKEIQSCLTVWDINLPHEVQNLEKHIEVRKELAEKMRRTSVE

[2] = A549 cytotoxicity assay (CellTiter-Glo); type: cell-based; conditions: human, A549 cells, 3 days of incubation
Protocol: Example D. A549 Cytotoxicity Assay Used to Determine Safety of the LRRK2 Inhibitors
A549 (ATCC, CCL-185) cells were seeded at a density of 4000 cells per well in a 384-well clear bottom plate (Greiner Cat #781090) in 45 μL total volume of the complete cell culture medium DMEM (PanEco, Cat #C420, Russia) with 10% FBS (HyClone Cat #SV30160.03). The cells were allowed to adhere overnight at 37° C., 5% CO2. The 500× compounds solutions in DMSO (Sigma Cat #D2650) were prepared in the compounds plate (Diamond Well Plate, Axigen, Cat #P-384-120SQ-C-S) and DMSO as a vehicle control was included. The 1 μL aliquot of 500× compounds (Compounds plate) was added to the 49 μL culture medium in the Dilution plate (Diamond Well Plate, Axigen, Cat #P-384-120SQ-C-S), mixed and then the 5 μL aliquots of the 10× compounds solutions was transferred to cells followed by centrifugation at 100 g for 1 min. Final DMSO concentration was 0.2%. After 3 days of incubation the 10 μL per well of CellTiter-Glo (Promega, CAT #G7572) was added to the cells, plate was centrifuged at 100 g for 1 min. The luminescence signal was detected with CLARIOstar Plus (BMG LABTECH) microplate reader.

LRRK2[G2019S] [3] = target: T2, LRRK2[G2019S] (Homo sapiens, UniProt Q5S007, G2019S); test: Cell-based NanoBRET target engagement assay in HEK293 cells transfected with LRRK2 (G2019S)-NanoLuc fusion vector; design: expressed in transfected cells; host or cells: HEK293 (ATCC); conditions: compound treatment 1 h
Summary of the method: (§1)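 HEK293 cells transiently transfected with NanoLuc-fused LRRK2 WT or G2019S (1 μg) plus carrier DNA, treated 1 h with compound (10-dose, 3-fold dilution from 1 μM). Target engagement read by NanoBRET; IC50 fitted only when signal at top concentration was below 5500.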
Target sequence in this assay (Q5S007 whole entry G2019S, the tested form may be a part): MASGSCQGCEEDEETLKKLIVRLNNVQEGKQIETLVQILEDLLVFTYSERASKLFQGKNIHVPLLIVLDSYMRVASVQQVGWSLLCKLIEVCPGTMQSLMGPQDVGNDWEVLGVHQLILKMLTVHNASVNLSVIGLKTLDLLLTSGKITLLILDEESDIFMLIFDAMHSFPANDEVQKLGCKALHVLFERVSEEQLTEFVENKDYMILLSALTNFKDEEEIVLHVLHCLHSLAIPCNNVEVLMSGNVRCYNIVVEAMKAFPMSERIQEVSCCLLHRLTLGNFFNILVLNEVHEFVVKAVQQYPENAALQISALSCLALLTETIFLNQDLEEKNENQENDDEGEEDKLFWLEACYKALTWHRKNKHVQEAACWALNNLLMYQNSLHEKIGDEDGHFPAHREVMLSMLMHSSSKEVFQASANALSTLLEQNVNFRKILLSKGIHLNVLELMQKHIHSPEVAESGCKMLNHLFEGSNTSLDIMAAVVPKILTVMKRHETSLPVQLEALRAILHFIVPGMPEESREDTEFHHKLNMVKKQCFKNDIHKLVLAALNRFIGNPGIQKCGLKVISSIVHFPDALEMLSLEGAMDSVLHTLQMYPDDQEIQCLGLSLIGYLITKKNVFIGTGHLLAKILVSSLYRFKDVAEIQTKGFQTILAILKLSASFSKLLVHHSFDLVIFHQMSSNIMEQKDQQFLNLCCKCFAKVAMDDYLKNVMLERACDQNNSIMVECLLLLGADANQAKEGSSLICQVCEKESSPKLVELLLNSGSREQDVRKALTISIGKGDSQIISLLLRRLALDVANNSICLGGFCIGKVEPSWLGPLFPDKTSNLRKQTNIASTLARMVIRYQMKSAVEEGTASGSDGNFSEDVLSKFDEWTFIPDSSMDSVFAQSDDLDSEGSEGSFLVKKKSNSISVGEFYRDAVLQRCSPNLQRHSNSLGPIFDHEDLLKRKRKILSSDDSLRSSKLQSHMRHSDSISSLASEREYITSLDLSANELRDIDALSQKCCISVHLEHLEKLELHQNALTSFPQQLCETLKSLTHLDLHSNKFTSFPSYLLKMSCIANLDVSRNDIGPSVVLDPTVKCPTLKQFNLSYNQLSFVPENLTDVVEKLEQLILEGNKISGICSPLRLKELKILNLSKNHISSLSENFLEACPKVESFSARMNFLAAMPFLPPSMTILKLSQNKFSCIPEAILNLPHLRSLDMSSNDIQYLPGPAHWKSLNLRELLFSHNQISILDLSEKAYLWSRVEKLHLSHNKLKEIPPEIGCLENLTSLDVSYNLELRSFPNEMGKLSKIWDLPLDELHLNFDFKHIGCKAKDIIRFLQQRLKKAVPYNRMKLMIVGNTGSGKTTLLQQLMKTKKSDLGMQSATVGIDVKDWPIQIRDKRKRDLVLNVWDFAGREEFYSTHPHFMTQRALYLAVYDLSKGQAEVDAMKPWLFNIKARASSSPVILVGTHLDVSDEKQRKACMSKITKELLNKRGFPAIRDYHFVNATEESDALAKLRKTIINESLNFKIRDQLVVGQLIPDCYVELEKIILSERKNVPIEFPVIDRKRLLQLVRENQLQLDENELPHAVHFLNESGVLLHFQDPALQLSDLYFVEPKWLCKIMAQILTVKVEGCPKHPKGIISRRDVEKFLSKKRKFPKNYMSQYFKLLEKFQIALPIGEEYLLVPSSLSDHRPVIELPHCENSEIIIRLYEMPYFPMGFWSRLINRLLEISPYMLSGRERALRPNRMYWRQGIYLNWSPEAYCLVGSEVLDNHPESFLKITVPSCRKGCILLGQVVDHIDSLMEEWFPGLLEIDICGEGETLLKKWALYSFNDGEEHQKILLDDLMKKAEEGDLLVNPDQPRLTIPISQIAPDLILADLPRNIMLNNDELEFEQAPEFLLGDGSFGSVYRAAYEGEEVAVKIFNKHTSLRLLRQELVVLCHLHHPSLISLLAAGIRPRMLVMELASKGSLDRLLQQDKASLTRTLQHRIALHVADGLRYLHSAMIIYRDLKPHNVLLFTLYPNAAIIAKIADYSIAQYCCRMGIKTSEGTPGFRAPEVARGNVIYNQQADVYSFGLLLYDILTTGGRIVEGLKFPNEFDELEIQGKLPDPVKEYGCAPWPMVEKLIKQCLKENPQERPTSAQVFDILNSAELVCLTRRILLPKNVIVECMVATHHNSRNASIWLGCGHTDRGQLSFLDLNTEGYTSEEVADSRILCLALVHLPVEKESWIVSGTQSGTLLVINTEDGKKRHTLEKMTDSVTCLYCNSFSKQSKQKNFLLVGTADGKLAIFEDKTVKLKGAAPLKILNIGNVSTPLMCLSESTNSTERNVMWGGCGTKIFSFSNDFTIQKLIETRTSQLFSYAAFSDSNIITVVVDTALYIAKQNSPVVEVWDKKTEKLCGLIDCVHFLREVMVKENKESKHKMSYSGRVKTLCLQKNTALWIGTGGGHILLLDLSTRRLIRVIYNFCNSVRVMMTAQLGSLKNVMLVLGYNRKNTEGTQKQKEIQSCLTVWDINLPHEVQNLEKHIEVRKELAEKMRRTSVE

LRRK2[G2019S] [4] = target: T2, LRRK2[G2019S]; test: Enzymatic activity inhibition against LRRK2[G2019S] (ADP-Glo kinase assay, LRRKtide substrate); type: biochemical; design: purchased SignalChem Biotech, Inc. L10-12GG-10; conditions: recombinant LRRK2[G2019S] 36 nM, ATP, 1 h at rt, average Ki
Protocol: Example A. Primary Assays Used to Determine Potency of the LRRK2 Inhibition
Assay for Determining Enzymatic Activity Inhibition Against LRRK2[G2019S].
Compound activity was determined using recombinant LRRK2[G2019S] protein (SignalChem Biotech, Inc., Cat #L10-12GG-10) and LRRKtide substrate (SignalChem Biotech, Inc., Cat #L10-58) in an in vitro enzymatic reaction. The enzymatic reaction was carried out in assay buffer (40 mM TRIS-HCl pH 7.4, 20 mM MgCl2, 0.05 mM DTT, 0.1 mg/mL BSA). The compounds were dispensed into a 384 well Diamond Well Plate (Axigen, Cat #P-384-120SQ-C-S) using the Biomek FX liquid handling system at the 80× solutions of compounds in DMSO. The 2× Protein-Substrate mix (final concentration 36 nM of LRRK2[G2019S] and 0.8 μg/μL of LRRKtide) was prepared in 1× Assay buffer and 4 μL of mixture per well was added into the 384-well white Reaction plate with NBS (Corning, Cat #CLS4513). The 4 μL of LRRKtide substrate w/o LRRK2[G2019S] in the 1× buffer was used for a negative control. Plates were centrifuged for 1 min at 200 g. Next the compounds were added to the reaction plate using Biomek station via following steps: 1 μL of 80× compounds (in DMSO) were mixed thoroughly with 39 μL of 2×10 μM ATP in Assay Buffer, then 4 μL of this mixture was added to Reaction plate with 4 μL of Protein-Substrate mix. Plates were centrifuged for 1 min at 200 g and incubated for 1 h at rt. Then, 4 μL per well of ADP-Glo reagent (Promega, ADP-Glo™ Kinase Assay, Cat #V9102) was added. Plates were incubated for 30 min at rt. Then, 8 μL per well of Kinase detection reagent (Promega, ADP-Glo™ Kinase Assay, Cat #V9102) was added and the luminescence signal was measured with a microplate reader. The luminescence signal was detected with CLARIOstar Plus (BMG LABTECH) microplate reader. The % inhibition was then used to calculate the Ki values. The average Ki values are shown in Table A, wherein “A” corresponds to Ki<5.0 nM, “B” corresponds to 5.0 nM≤Ki<10.0 nM, “C” 10.0 nM≤Ki<50.0 nM, “D” corresponds to 50.0 nM≤Ki<100.0 nM and “E” corresponds to Ki>100.0 nM.
Target sequence in this assay (Q5S007 970-2527 G2019S limits assumed): as the sequence (Q5S007 970-2527 limits assumed) above, with G1050S counted along it

LRRK2 WT [5] = target: T1, LRRK2 WT; test: Cell-based NanoBRET target engagement assay in HEK293 cells transfected with LRRK2 WT-NanoLuc fusion vector; design: expressed in transfected cells; host or cells: HEK293 (ATCC); conditions: compound treatment 1 h
Summary of the method: as §1
Target sequence in this assay (Q5S007 whole entry): as the sequence (Q5S007 whole entry G2019S, the tested form may be a part) above, with S2019G counted along it

| Compound | Ki (LRRK2 WT [1]) [µM] | CC50 at 3 days [2] [µM] | IC50 (LRRK2[G2019S] [3]) [µM] | Ki (LRRK2[G2019S] [4]) [µM] | IC50 (LRRK2 WT [5]) [µM] |
| --- | --- | --- | --- | --- | --- |
| Cn1nc(-c2n[nH]c3ccc(OC4(C)CC4)cc23)cc(N2CCCC(F)(F)C2)c1=O [Compound 54, 4-(3,3-difluoro-1-piperidyl)-2-methyl-6-[5-(1-methylcyclopropoxy)-1H-indazol-3-yl]pyridazin-3-one] | ≤ 0.01 | > 10 | ≤ 0.05 | ≤ 0.005 | ≤ 0.05 |
| CC(C)Oc1ccc2[nH]nc(-c3cc(N4CCOCC4)c(=O)n(C)n3)c2c1 [Compound 14, 6-(5-isopropoxy-1H-indazol-3-yl)-2-methyl-4-morpholino-pyridazin-3-one] | ≤ 0.01 | > 10 | ≥ 0.1 | ≤ 0.005 | ≥ 0.1 |
| Cn1nc(-c2n[nH]c3ccc(OC4(C)CC4)cc23)cc(N2CCOCC3(CC3)C2)c1=O [Compound 52, 2-methyl-6-[5-(1-methylcyclopropoxy)-1H-indazol-3-yl]-4-(5-oxa-8-azaspiro[2.6]nonan-8-yl)pyridazin-3-one] | ≤ 0.01 | > 10 | ≤ 0.05 | ≤ 0.005 | ≤ 0.05 |
| CC(C)Oc1ccc2[nH]nc(-c3cc(N4CCCC4)c(=O)n(C)n3)c2c1 [Compound 44, 6-(5-isopropoxy-1H-indazol-3-yl)-2-methyl-4-pyrrolidin-1-yl-pyridazin-3-one] | ≤ 0.01 | > 10 | ≤ 0.05 | ≤ 0.005 | ≤ 0.05 |
| CC(C)Oc1ccc2[nH]nc(-c3cnnc(N4CCC(O)C4)c3)c2c1 (stereo in doubt) [Compound 2, (R)-1-(5-(5-isopropoxy-1H-indazol-3-yl)pyridazin-3-yl)pyrrolidin-3-ol] | 0.01 to 0.02 | > 10 | ≥ 0.1 | 0.005 to 0.01 | ≥ 0.1 |
